Consider seven compounds from ChEMBL document CHEMBL1155582, “Bioactive constituents of Thuja occidentalis” (J Nat Prod, 2000).

Assay [1] in a line: Inhibition of 12-O-tetradecanoylphorbol 13-acetate-induced transformation of mouse JB6 cells after 14 days by soft agar transformation assay. Format: functional.
Another assay concerns KB. Kind of assay: Cytotoxicity against human KB cells. The format is functional, cell-based.
Assay [2] is described as follows: (§1) Cytotoxicity against mouse JB6 cells by trypan blue exclusion test. Format: functional, cell-based.
For assay [3], the target named is T1, Ornithine decarboxylase (Mus musculus) (UniProt P00860).
T1 sequence (whole entry): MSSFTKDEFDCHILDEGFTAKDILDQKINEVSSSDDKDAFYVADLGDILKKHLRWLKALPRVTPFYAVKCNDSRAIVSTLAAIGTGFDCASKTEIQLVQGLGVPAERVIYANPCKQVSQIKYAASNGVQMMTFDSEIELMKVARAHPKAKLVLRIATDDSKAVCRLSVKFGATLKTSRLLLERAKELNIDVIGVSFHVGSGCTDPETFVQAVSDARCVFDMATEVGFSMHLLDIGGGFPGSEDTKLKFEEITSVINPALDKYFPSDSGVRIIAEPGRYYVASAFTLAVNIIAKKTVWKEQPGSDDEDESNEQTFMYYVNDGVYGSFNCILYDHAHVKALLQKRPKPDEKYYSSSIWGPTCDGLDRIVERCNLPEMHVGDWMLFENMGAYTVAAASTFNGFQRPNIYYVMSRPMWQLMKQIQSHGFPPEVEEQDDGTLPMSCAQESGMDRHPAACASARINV
Briefly: Inhibition of 12-O-tetradecanoylphorbol 13-acetate-induced ornithine decarboxylase activity in mouse ME308 cells. Format: cell-based.

Another assay has as its system JB6. The description is as §1. The format is functional, cell-based.

Structures are written as SMILES. Activity calls are given as the source filed them. The rule behind the calls is not given here.

For the compound `C=C[C@@]1(C)CCC2=C(C1)C(=O)C[C@H]1[C@](C)(C(=O)O)CCC[C@]21C`, the Activity was determined as 12.6 µM in assay [1] and 0.98 µM in assay [3]. In addition, the IC50 (with KB; in assay [2]) was more than 60 µM each time.
Regarding `CC1=C(/C=C/C(C)=C/C=C/C(C)=C\C(=O)O)C(C)(C)CCC1` [ISOTRETINOIN], the Activity in assay [1] is 0.021 µM; in assay [3], 0.6 µM.
`COc1cc([C@@H]2c3cc4c(cc3C[C@H]3COC(=O)[C@@H]32)OCO4)cc(OC)c1OC` [DESOXYPODOPHYLLOTOXIN]: the Activity in assay [1] is 0.004 µM; in assay [3] it was less than 0.08 µM. Further, in the assay with JB6, the outcome was Active.
Take `COc1cc(C[C@H]2C(=O)OC[C@@H]2Cc2ccc3c(c2)OCO3)cc(OC)c1OC`: the Activity amounted to 3.75 µM in assay [1] and 6.5 µM in assay [3]. The outcome in the assay on JB6 was Active.
For the compound `C=C[C@]1(C)C=C2C(=O)C[C@@H]3[C@](C)(CCC[C@@]3(C)C(=O)O)[C@H]2CC1`, the Activity worked out at 11.7 µM in assay [1] and 0.5 µM in assay [3]. Also, the IC50 (in the assay with KB; in assay [2]) was more than 60 µM each time.
Turning to `COc1cc([C@H]2c3cc4c(cc3C[C@H]3COC(=O)[C@H]32)OCO4)cc(OC)c1OC` [ISOPICRODEOXYPODOPHYLLOTOXIN], the Activity was 0.18 µM in assay [1] and 0.55 µM in assay [3]. Also, the result in the assay on JB6 was Active.
`C=C[C@@]1(C)CC[C@H]2C(=CC[C@@H]3[C@]2(C)CCC[C@@]3(C)C(=O)O)C1` [ISOPIMARIC ACID]: the Activity came out at 13.2 µM in assay [1] and 0.86 µM in assay [3]. The IC50 (in the assay on KB; in assay [2]) was more than 60 µM throughout.

The term IC50 denotes the concentration needed to halve the response being measured. A lower IC50 goes with greater potency in that assay.
